From patent publication US20070128217A1 (priority 2003, published 2007)

Tests used:
[1] = system: rabbit serum obtained by immunizing a rabbit with the SARS-CoV strain Frankfurt 1; type: binding; design: Binding of a rabbit serum to linear peptides / Binding of a rabbit serum to looped peptides / Rabbit serum linear peptides / Rabbit serum looped peptides / Binding of a rabbit serum to linear peptides of protein N of SARS-CoV Urbani (Rabbit serum linear peptides) / Binding of a rabbit serum to looped/cyclic peptides of protein N of SARS-CoV Urbani (Rabbit serum looped peptides): unit not given here
[2] = system: control sera (pooled serum of ten healthy LUMC hospital workers; commercial negative donor pooled serum from the Dutch bloodbank); type: binding, human; design: Binding of Control serum LUMC to linear peptides / Binding of Control serum Blood-bank to linear peptides / Binding of Control serum LUMC to looped peptides / Binding of Control Serum Blood-Bank to Looped peptides / Binding of Control serum LUMC to linear peptides of the protein M of SARS-CoV Urbani / Binding of Control serum Blood-bank to linear peptides of the protein M of SARS-CoV Urbani / Binding of Control serum LUMC to looped peptides of the protein M of SARS-CoV Urbani / Binding of Control Serum Blood-Bank to Looped peptides of the protein M of SARS-CoV Urbani: unit not given here
[3] = system: recombinant human anti-SARS-CoV antibody 03-018; type: binding; design: Binding of antibody 03-018 to linear peptides of the N protein of SARS-CoV Urbani / Binding of antibody 03-018 to looped/cyclic peptides of the N protein of SARS-CoV Urbani: unit not given here
[4] = system: antibodies in sera from SARS patients (sera 1a, 1b, 2, 6, 37, 62, London, SARS-yellow, SARS-green); type: binding, human; design: Binding of serum 6 to linear peptides of protein X1 of SARS-CoV Urbani / Binding of serum 37 to linear peptides of protein X1 of SARS-CoV Urbani / Binding of serum 6 to looped/cyclic peptide (PEPSCAN-ELISA) / Binding of serum 37 to looped/cyclic peptide (PEPSCAN-ELISA) / Binding of serum 37 to looped/cyclic peptides of protein X1 of SARS-CoV Urbani / Binding of serum 6 to linear peptides of protein X2 / Binding of serum 37 to linear peptides of protein X2 / Binding of serum 37 to looped/cyclic peptides of protein X2 of SARS-CoV Urbani / Binding of serum 6 to linear peptides of protein M of SARS-CoV Urbani / Binding of serum 37 to linear peptides of protein M of SARS-CoV Urbani / Binding of serum 6 to looped/cyclic peptides of protein M of SARS-CoV Urbani / Binding of serum 37 to looped/cyclic peptides of protein M of SARS-CoV Urbani / Binding of serum 6 to linear peptides of protein X3 of SARS-CoV Urbani / Binding of serum 37 to linear peptides of protein X3 of SARS-CoV Urbani / Binding of serum 37 to looped/cyclic peptides of protein X3 of SARS-CoV Urbani / Binding of serum 6 to linear peptides of protein X4 of SARS-CoV Urbani / Binding of serum 37 to linear peptides of protein X4 of SARS-CoV Urbani / Binding of serum 37 to looped/cyclic peptides of protein X4 of SARS-CoV Urbani / Binding of serum 6 to linear peptides of protein X5 of SARS-CoV Urbani / Binding of serum 37 to linear peptides of protein X5 of SARS-CoV Urbani / Binding of serum 37 to looped/cyclic peptides of protein X5 of SARS-CoV Urbani / Binding of serum 6 to linear peptides of protein N of SARS-CoV Urbani / Binding of serum 37 to linear peptides of protein N of SARS-CoV Urbani / Binding of serum 6 to linear peptide (PEPSCAN-ELISA) / Binding of serum 1a to looped/cyclic peptides of protein N of SARS-CoV Urbani / Binding of serum 1b to looped/cyclic peptides of protein N of SARS-CoV Urbani / Binding of serum 2 to looped/cyclic peptides of protein N of SARS-CoV Urbani / Binding of serum 6 to looped/cyclic peptides of protein N of SARS-CoV Urbani / Binding of serum 37 to looped/cyclic peptides of protein N of SARS-CoV Urbani / Binding of serum 62 to looped/cyclic peptides of protein N of SARS-CoV Urbani / Binding of serum London to looped/cyclic peptides of protein N of SARS-CoV Urbani / Binding of serum SARS-green to looped/cyclic peptides of protein N of SARS-CoV Urbani: unit not given here

Row | Sequence | Binding of a rabbit serum to linear peptides of protein N of SARS-CoV Urbani (Rabbit serum linear peptides) [1] | Binding of a rabbit serum to looped/cyclic peptides of protein N of SARS-CoV Urbani (Rabbit serum looped peptides) [1] | Binding of Control Serum Blood-Bank to Looped peptides [2] | Binding of Control serum Blood-bank to linear peptides [2] | Binding of Control serum LUMC to linear peptides [2] | Binding of Control serum LUMC to looped peptides [2] | Binding of antibody 03-018 to linear peptides of the N protein of SARS-CoV Urbani [3] | Binding of antibody 03-018 to looped/cyclic peptides of the N protein of SARS-CoV Urbani [3] | Binding of serum 1a to looped/cyclic peptides of protein N of SARS-CoV Urbani [4] | Binding of serum 1b to looped/cyclic peptides of protein N of SARS-CoV Urbani [4] | Binding of serum 2 to looped/cyclic peptides of protein N of SARS-CoV Urbani [4] | Binding of serum 6 to looped/cyclic peptides of protein N of SARS-CoV Urbani [4] | Binding of serum 37 to looped/cyclic peptides of protein N of SARS-CoV Urbani [4] | Binding of serum 62 to looped/cyclic peptides of protein N of SARS-CoV Urbani [4] | Binding of serum London to looped/cyclic peptides of protein N of SARS-CoV Urbani [4] | Binding of serum SARS-green to looped/cyclic peptides of protein N of SARS-CoV Urbani [4] | Binding of serum SARS-yellow to looped/cyclic peptides of protein N of SARS-CoV Urbani [4] | also measured
1 | GKEELRFPRGQGVPI | 0.1 | 0.6 | 0.9 | 0.9 | 0.8 | 0.9 | 0.1 | 0.3 | 0.5 | 0.4 | 0.8 | 0.3 | 0.9 | 1.1 | 0.6 | 0.9 | 0.7 | Binding of serum 1a to linear peptides of protein N of SARS-CoV Urbani [4]: 0.3; Binding of serum 1b to linear peptides of protein N of SARS-CoV Urbani [4]: 0.1; Binding of serum 2 to linear peptides of protein N of SARS-CoV Urbani [4]: 0.3; Binding of serum 6 to linear peptides of protein N of SARS-CoV Urbani [4]: 0.2; Binding of serum 37 to linear peptides of protein N of SARS-CoV Urbani [4]: 0.7; Binding of serum 62 to linear peptides of protein N of SARS-CoV Urbani [4]: 0.7; Binding of serum London to linear peptides of protein N of SARS-CoV Urbani [4]: 0.5; Binding of serum SARS-green to linear peptides of protein N of SARS-CoV Urbani [4]: 0.6; Binding of serum SARS-yellow to linear peptides of protein N of SARS-CoV Urbani [4]: 0.6
2 | RGNSPARMASGGGET | 0.1 | 0.2 | 0.6 | 0.8 | 0.7 | 0.5 | 0.1 | 0.2 | 0.4 | 0.3 | 0.4 | 0.3 | 0.4 | 0.4 | 0.8 | 0.1 | 0.1 | Binding of serum 1a to linear peptide (PEPSCAN-ELISA) [4]: 0.3; Binding of serum 1b to linear peptide (PEPSCAN-ELISA) [4]: 0.1; Binding of serum 2 to linear peptide (PEPSCAN-ELISA) [4]: 0.2; Binding of serum 6 to linear peptide (PEPSCAN-ELISA) [4]: 0.2; Binding of serum 37 to linear peptide (PEPSCAN-ELISA) [4]: 0.5; Binding of serum 62 to linear peptide (PEPSCAN-ELISA) [4]: 0.5; Binding of serum London to linear peptide (PEPSCAN-ELISA) [4]: 0.5; Binding of serum SARS-green to linear peptide (PEPSCAN-ELISA) [4]: 0.1; Binding of serum SARS-yellow to linear peptide (PEPSCAN-ELISA) [4]: 0.5
